{"source": "patent US10064843B2", "about": "“Bis-amide derivative and use thereof” (University-Industry Cooperation Group of Kyung Hee …, priority 2013, dated 2018)", "key": {"murine splenocytes": {"system": "murine splenocytes", "assay": "MTT cytotoxicity in murine splenocytes", "type": "cell-based, mouse", "details": "up to 10 μM; FIG. 8a", "experimental": "Example 3: Isolation of Splenocytes from Mice and Cell Culture\nSeven to eight week-old female Balb/c mice were purchased from Orient Bio, Inc. (Sungnam, Korea). Experimental animals were allowed to maintain at a non-pathogenic environment and adapted before the experiment. Experimental mice were sacrificed by dislocation of spine, and the spleens collected therefrom were removed into petri dishes filled with RPMI containing 10% FBS, 100 units/mL of penicillin, and 100 μg/mL of streptomycin. The spleens were dispersed through a nylon mesh to prepare a single cell suspension, and RBC was depleted by using RBC lysis buffer (Sigma, St. Louis, Mo.). Splenocytes were washed and cultured in RPMI complete medium.\n(§1) Example 9: Analysis of Cytotoxicity\n(§2) Cytotoxicity was analyzed in a 96-well plate using 5 mg/mL of MTT (3-(4,5-dimethylthiasol-2-yl)-2,5-diphenyltetrazolium bromide). The optical density of cells was measured at 550 nm using a microplate reader (Bio-Rad, Richmond, Calif., USA). Cell viability rate was expressed in percentage of the absorbance of treated cells relative to the absorbance of untreated cells."}, "NFAT1": {"system": "NFAT1", "assay": "NFAT dephosphorylation by western blot and immunofluorescence", "type": "cell-based, mouse", "experimental": "Upon stimulation, the cells were washed with sterile PBS, suspended in lysis buffer (Invitrogen, Carlsbad, Calif., USA), incubated on ice for 10 minutes, and centrifuged at 19,000 g for 15 minutes. The phosphorylation state of the NFAT protein in the supernatant was confirmed by western blot analysis using monoclonal anti-NFATc 1. For the confirmation of NFAT1 localization using a confocal microscope, the cells were washed and then fixed by treating with 3.7% formaldehyde at room temperature for 20 minutes. […] Upon incubation, the cells were washed twice with PBS and incubated in a dark room at room temperature with secondary antibody, which was conjugated with Alexa 546 (Invitrogen, Carlsbad, Calif., USA) diluted in PBS containing 3% BSA at a 1:200 ratio, for 2 hours. […] Finally, the cells were washed once with PBS and mounted onto glass slides using a coverslip and a mounting solution (Vector Mount, Calif., USA). The images were captured via Zeiss confocal laser scanning microscope (Zeiss, Germany)."}, "HCV replicon cell [1]": {"system": "HCV replicon cell", "assay": "Combined treatment: MTT analysis in HCV replicon cell", "type": "cell-based, human", "experimental": "as §1, §2"}, "HCV replicon cell [2]": {"system": "HCV replicon cell", "assay": "Combined treatment: HCV replicon RNA level by qRT-PCR, synergy analysis", "type": "cell-based, hepatitis C virus", "details": "in combination with telaprevir, IFN-α, or ribavirin vs. each alone; FIG. 16", "experimental": "(§3) Example 19: Real-Time Quantitative Reverse Transcriptase PCR Analysis\n(§4) Real-time quantitative reverse transcriptase PCR (qRT-PCR) was performed using SYBR Green PCR Master Mix (Invitrogen/Applied Biosystem, Carlsbad, Calif., USA) and ABI Prism 7300 Real-time PCR System (Applied Biosystems, Carlsbad, Calif., USA) according to the manufacturer's instructions. Calculations were performed based on […] method using the following equation: R (ratio)=2-[ΔCT (sample)-ΔCT (control group)]. The data were expressed as fold change of the treated group relative to the control group and standardized relative to the glyceraldehyde 3-phosphate dehydrogenase (GAPDH) level.\nExample 20: Synergy Analysis\nIn order to confirm whether the combination between NIM811 and IFN-α, ribavirin, or telaprevir is synergistic, additive, or antagonistic, the combination index (CI) was calculated using the CalcuSyn Software (Biosoft). In fact, the combination is additive when CI=1.0, synergistic when CI<1.0, and antagonistic when CI>1.0."}, "IL-2 production": {"system": "IL-2 production", "assay": "IL-2 concentration by ELISA in splenocytes", "type": "cell-based, mouse", "details": "up to 10 μM; FIG. 9c", "experimental": "Upon incubation, the cultures from three different wells were collected and IL-2 concentration was analyzed by ELISA according to the protocol by Enzo life Science (Plymouth Meeting, Pa., USA). IL-2 concentration was calculated based on the IL-2 standard solution."}, "CypA": {"biological_target": "T1, CypA (Homo sapiens, UniProt P62937)", "T1 construct": "GST (N, cleaved yes); made in house; host or cells: E. coli (pGEX-KG)", "T1 sequence (P62937 whole entry)": "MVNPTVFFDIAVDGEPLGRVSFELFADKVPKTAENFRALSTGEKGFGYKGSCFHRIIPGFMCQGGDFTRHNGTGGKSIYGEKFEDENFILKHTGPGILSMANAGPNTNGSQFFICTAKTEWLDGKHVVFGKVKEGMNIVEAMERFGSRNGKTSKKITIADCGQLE", "assay": "PPIase activity of CypA, coupled chymotrypsin analysis", "type": "biochemical", "experimental": "Example 5: Analysis of Peptidyl-Prolyl Cis-Trans Isomerase Activity\nThe PPIase activity of CypA was determined according to a known method using the coupled chymotrypsin analysis.\nThe cis-trans isomerization was measured by absorbance at 390 nm in a spectrophotometer. Additionally, the remaining percentage of enzyme activity was measured at different concentrations of the inhibitor to calculate the 50% inhibition concentration (IC50) to the PPIase activity. Data was optimized via graphs by exporting using Graph Pad Prism 5."}, "IFN-α": {"system": "IFN-α", "assay": "IFN-α mRNA and IFN-α ELISA in HCV replicon cell", "type": "cell-based, human", "experimental": "Example 11: Determination of IL-8 and INF-α Concentrations in Cell Culture Media by ELISA\nUpon incubation, the cell culture media were collected and the IL-8 and IFN-α concentrations were analyzed according to the protocol of eBioscience (San Diego, Calif., USA) by ELISA.\nas §3, §4"}}, "note": "Like-named read-outs stand apart in the source and are kept apart here.", "data": [{"molecule": "COc1cc(C(C(=O)NC2CCCCC2)N(C(=O)Cc2c[nH]c3ccccc23)c2ccc(C(C)C)cc2)cc(OC)c1OC", "note": "(stereo not drawn) [WJCPA-126, N-cyclohexyl-2-[(2-1H-indol-3-yl-acetyl)-(4-isopropyl-phenyl)-amino]-2-(3,4,5-trimethoxy-phenyl)-acetamide]", "values": [{"measurement": "cytotoxicity in mouse splenocytes", "setting": "murine splenocytes", "result": "no cytotoxicity"}, {"measurement": "NFAT1 migration into the nucleus", "setting": "NFAT1; ionomycin stimulation, FIG. 9b", "result": "significant localization of NFAT1 within the nucleus"}, {"measurement": "phosphorylation state of NFAT1", "setting": "NFAT1; ionomycin-stimulated, FIG. 9a", "result": "maintained the dephosphorylated state of NFAT1"}, {"measurement": "cytotoxicity in combined treatment", "setting": "HCV replicon cell [1]; in combination with IFN-α, RBV, or telaprevir, FIG. 16a", "result": "did not show any noticeable cytotoxicity"}, {"measurement": "cell viability in combined treatment", "setting": "HCV replicon cell [1]; in combination with interferon-α, ribavirin, or telaprevir", "result": "≥ 80", "unit": "%"}, {"measurement": "levels of HCV-specific RNA and IL-8 in combined treatment", "setting": "HCV replicon cell [2]", "result": "synergistic decrease"}, {"measurement": "ionomycin-induced IL-2 production", "setting": "IL-2 production", "result": "did not show any inhibitory activity"}, {"measurement": "inhibitory effect against the PPIase activity of CypA", "setting": "CypA; 1 μM, 20 nM CypA, FIG. 3a", "result": "strong inhibitory effect"}, {"measurement": "IC50", "setting": "CypA; FIG. 3b, read-out: IC50 PPIase activity", "result": 3.5, "unit": "nM"}, {"measurement": "IC50", "setting": "CypA; FIG. 7a, read-out: IC50 PPIase activity of CypA", "result": 3.6, "unit": "nM"}, {"measurement": "mRNA level of IFN-α", "setting": "IFN-α; 48 hours after the treatment, FIG. 15d", "result": "cannot control the mRNA level of IFN-α"}, {"measurement": "IFN-α production (ELISA)", "setting": "IFN-α; FIG. 15e", "result": "significantly increase the IFN-α production"}]}]}
